In US8546376B2, “Pharmaceutical compounds” (Almac Discovery Limited, priority 2009, dated 2013):

Experiments:
AKT1 = molecular target: T1, AKT1 (Homo sapiens, UniProt P31749); experiment: AKT Kinase Assay (IMAP fluorescent polarisation) vs AKT1; type: biochemical; settings: activated AKT1, FAM Crosstide substrate
T1 construct: purchased SignalChem
How it was run: (§1)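 IC50 values came from non-linear regression of % inhibition relative to vehicle, measured by IMAP fluorescence polarisation (485/528 nm) after a 1 h room-temperature reaction of FAM-Crosstide and ATP. Each activated isoform was first exposed to compound for 45 min across fourteen half-log doses.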

AKT2 = molecular target: T2, AKT2 (Homo sapiens, UniProt P31751); experiment: AKT Kinase Assay (IMAP fluorescent polarisation) vs AKT2; type: biochemical; settings: activated AKT2, FAM Crosstide substrate
T2 construct: purchased SignalChem
T2 sequence (P31751 whole entry): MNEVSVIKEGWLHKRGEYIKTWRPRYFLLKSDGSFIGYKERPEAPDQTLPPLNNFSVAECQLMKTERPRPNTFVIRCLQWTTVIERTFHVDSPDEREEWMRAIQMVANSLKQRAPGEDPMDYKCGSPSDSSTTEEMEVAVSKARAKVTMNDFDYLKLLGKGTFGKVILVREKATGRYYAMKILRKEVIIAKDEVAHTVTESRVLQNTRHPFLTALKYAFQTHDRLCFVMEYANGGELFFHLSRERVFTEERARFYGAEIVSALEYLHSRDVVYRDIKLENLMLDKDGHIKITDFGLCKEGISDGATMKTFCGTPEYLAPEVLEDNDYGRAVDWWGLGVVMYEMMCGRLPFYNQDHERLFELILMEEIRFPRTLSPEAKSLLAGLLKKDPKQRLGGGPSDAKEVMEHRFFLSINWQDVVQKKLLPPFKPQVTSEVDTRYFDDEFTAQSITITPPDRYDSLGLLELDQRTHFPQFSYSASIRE
How it was run: as §1

AKT3 = molecular target: T3, AKT3 (Homo sapiens, UniProt Q9Y243); experiment: AKT Kinase Assay (IMAP fluorescent polarisation) vs AKT3; type: biochemical; settings: activated AKT3, FAM Crosstide substrate
T3 construct: purchased SignalChem
T3 sequence (Q9Y243 whole entry): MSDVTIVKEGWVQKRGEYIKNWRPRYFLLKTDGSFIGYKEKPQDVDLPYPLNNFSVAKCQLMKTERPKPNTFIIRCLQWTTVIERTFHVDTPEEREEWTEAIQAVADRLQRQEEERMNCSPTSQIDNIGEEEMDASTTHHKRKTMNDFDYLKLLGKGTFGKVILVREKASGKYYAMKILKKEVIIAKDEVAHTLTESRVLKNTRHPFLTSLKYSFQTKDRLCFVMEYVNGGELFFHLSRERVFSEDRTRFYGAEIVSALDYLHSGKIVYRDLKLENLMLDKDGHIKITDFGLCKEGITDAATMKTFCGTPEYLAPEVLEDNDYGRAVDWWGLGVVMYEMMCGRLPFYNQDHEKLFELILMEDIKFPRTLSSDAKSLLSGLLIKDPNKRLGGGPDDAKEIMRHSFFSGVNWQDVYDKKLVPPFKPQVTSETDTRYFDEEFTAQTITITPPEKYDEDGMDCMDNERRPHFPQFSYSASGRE
How it was run: as §1

[1] = tested on: PC3 and/or LnCaP cell lines; experiment: In vitro cell proliferation assay (Cell Titre Glo); type: cell-based; settings: Homo sapiens, 72 hours, read-out: inhibition of proliferation IC50
Method: Testing of the compounds was also performed using in vitro cell proliferation assays:
Cell Titre Glo (Promega) is a highly sensitive homogeneous reagent used to determine the viability of cells. The reagent uses a stable form of luciferase to measure ATP as an output of viability. The luminescent values generated in the assay are directly proportional to the number of viable cells in your assay.
The following materials were used: White, clear bottomed 96 well assay plates (Costar); Cell titre Glo reagents; LnCaP (ECACC) cells grown in RPMI medium (Invitrogen) supplemented with 10 mM HEPES (Invitrogen), 1 mM Sodium pyruvate (Invitrogen), 2 mM L-Glutamine (Invitrogen) and 10% Foetal calf serum (Invitrogen); PC3 (ECACC) cells grown in RPMI medium supplemented with 10% Foetal calf serum (Invitrogen); Trypsin (Invitrogen); PBS (Invitrogen); Biotek Synergy 4 Hybrid Plate reader; 96 well plate shaker (Stuart SSL5); Eppendorf 5414 desk-top centrifuge; Beckman Coulter cell counter Z1 single threshold system.
Prostate cell lines, PC3 and LnCaP, were washed, detached and re-suspended in their respective fresh media. The cells were pelleted by centrifugation (Eppendorf 5414) and spent supernatant discarded. The cells were re-suspended by vortex mixing, counted and seeded into clear bottom white 96 well plates at a density of 5000 cells per well. The cells were incubated (Sanyo) overnight at 37° C. ([…]), and next day treated with increasing concentrations of test compound formulated in fresh medium. The plates were returned to the incubator for 72 hours. […]
The cell viability post compound treatment was determined by the luminescent intensity emitted from the drug treated wells in the plate. In brief, the assay plate was placed in the Biotex Synergy 4 Hybrid plate reader and the luminescence read in each well. The compound treated wells were compared to vehicle treated wells and the % inhibition of cell viability calculated.
The data was analysed using GraphPad Prism, with IC50 values generated using non-linear regression of the data set.

AKT phosphorylation = experiment: Phosphorylation status of AKT/PI3K pathway members via western blotting; type: cell-based; settings: for 48 h at 10 μM
Description: Analysis of Compound Effects on AKT Signalling Pathways
Phosphorylation status of various members of the AKT/PI3K pathway were investigated via western blotting.
Materials Required for this Assay: 20× Running buffer (Invitrogen); Rainbow marker ladder (GE Healthcare); Reducing buffer (Invitrogen); 20× Transfer buffer (Invitrogen); 4-12% Bis-Tris Gels (Invitrogen); Filter paper (Whatman); Nitrocellulose (Amersham); ECL plus detection reagents (GE Healthcare); Radiographic film (Kodak); Biorad Protein determination reagent (Biorad); AKT pathway signalling antibodies (Cell Signalling)
LnCaP and PC3 cell lines were washed, detached and re-suspended in fresh medium. They were seeded in 90 mm^2 dishes and incubated overnight ([…]/5% CO2) to allow adherence. […]
The medium was removed and the cells placed on ice and washed in PBS. […] The resultant supernatant was assayed for protein content using the Bradford method (Biorad) and equal quantities of protein calculated and heated in sample reducing buffer to 95° C. for ten minutes. […]
The membranes were used to determine difference in total AKT, pSer473 AKT, pGSK3β and total GSK3β (all sourced from Cell Signalling). […] The membranes were washed three times in PBS and incubated with the respective secondary antibodies (Sigma Aldrich) for two hours and the proteins were detected using ECL plus detection reagents (GE Healthcare).

T1 sequence (P31749 whole entry): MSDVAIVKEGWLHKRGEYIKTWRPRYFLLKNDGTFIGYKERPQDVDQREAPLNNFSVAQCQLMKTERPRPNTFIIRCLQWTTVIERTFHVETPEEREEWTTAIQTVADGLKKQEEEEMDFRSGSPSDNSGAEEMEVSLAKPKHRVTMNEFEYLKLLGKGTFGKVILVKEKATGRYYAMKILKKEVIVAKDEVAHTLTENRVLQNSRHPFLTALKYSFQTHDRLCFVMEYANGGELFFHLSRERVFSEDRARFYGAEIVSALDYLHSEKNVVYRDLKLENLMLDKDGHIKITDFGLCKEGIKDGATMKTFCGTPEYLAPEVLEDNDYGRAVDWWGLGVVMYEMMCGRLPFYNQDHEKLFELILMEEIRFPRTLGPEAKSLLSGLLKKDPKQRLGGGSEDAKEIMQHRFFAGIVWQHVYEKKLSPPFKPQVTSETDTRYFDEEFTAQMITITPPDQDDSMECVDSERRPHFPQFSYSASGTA

Row | SMILES | IC50 (AKT1) [nM] | IC50 (AKT2) [nM] | IC50 (AKT3) [nM] | IC50 [1] [nM] | inhibition of AKT phosphorylation (AKT phosphorylation)
1 | COc1ccc2c(=O)c(-c3ccc(C4(N)CCC4)cc3)c(-c3ccccc3)oc2c1OC [Example 4, 3-[4-(1-Amino-cyclobutyl)-phenyl]-7,8-dimethoxy-2-phenyl-chromen-4-one] | 1000 to 10000 | ≤ 1000 | > 10000 | < 10000 | –
2 | CN1CCN(c2ccc3oc(-c4ccccc4)c(-c4ccc(C5(N)CCC5)cc4)c(=O)c3c2)CC1 [Example 20, 3-[4-(1-Amino-cyclobutyl)-phenyl]-6-(4-methyl-piperazin-1-yl)-2-phenyl-chromen-4-one] | 1000 to 10000 | ≤ 1000 | > 10000 | – | inhibition of AKT phosphorylation
3 | Cl.NC1(c2ccc(-c3c(-c4ccccc4)oc4c(=O)[nH]ccc4c3=O)cc2)CCC1 [Example 40, 3-[4-(1-Amino-cyclobutyl)-phenyl]-2-phenyl-7H-pyrano[2,3-c]pyridine-4,8-dione hydrochloride] | ≤ 1000 | ≤ 1000 | 1000 to 10000 | < 10000 | inhibition of AKT phosphorylation
4 | NC1(c2ccc(-c3c(-c4ccccc4)oc4c(cc(Cl)c5nc[nH]c54)c3=O)cc2)CCC1 [Example 44, 7-[4-(1-Amino-cyclobutyl)-phenyl]-4-chloro-8-phenyl-1H-chromeno[7,8-d]imidazol-6-one] | ≤ 1000 | ≤ 1000 | ≤ 1000 | < 10000 | –
5 | NC1(c2ccc(-c3c(-c4ccccc4)oc4c(CCCl)nccc4c3=O)cc2)CCC1 [Example 129, 3-(4-(1-aminocyclobutyl)phenyl)-8-(2-chloroethyl)-2-phenyl-4H-pyrano[2,3-c]pyridin-4-one] | ≤ 1000 | ≤ 1000 | 1000 to 10000 | – | –
